Where “and” joins values, the source holds several entries; their conditions need not be identical. Equal entries are not always repeated. Where two headings read alike, the source gives them in different places. Marks after values point to notes of the source that are not given here.
How the values were obtained:
[1] = in vitro; details: both, human
[2] = in vitro; details: male, Gottingen, minipig, s9, pH 7.4, CLint +NADPH
[3] = in vitro; details: male, cynomolgus monkey
[4] = in vitro; details: male, Sprague-Dawley, rat, s9, pH 7.4, CLint +NADPH
[5] = male, cynomolgus monkey, pH 7.4
[6] = male, CD-1, mouse, 1 μM, pH 7.4
[7] = male, rhesus monkey, pH 7.4
[8] = in vitro; details: male, Hartley, guinea pig
[9] = in vitro; details: male, CD-1, mouse, s9, pH 7.4, CLint +NADPH
[10] = both, human, pH 7.4
[11] = male, Hartley, guinea pig, pH 7.4
[12] = Allometric scaling; parameters: species or system human; details: for SSS Human Predicted S9 CLint: exponent 0.75
[13] = in vitro; details: male, rhesus monkey
[14] = male, Gottingen, minipig, 1 μM, pH 7.4
[15] = cited from earlier work
[16] = male, Sprague-Dawley, rat, 1 μM, pH 7.4
[17] = type: in vitro ADME
[18] = Incubations with cynomolgus monkey hepatic S9
[19] = Single-species scaling
[20] = Incubations with human hepatic S9; details: for CLint scaled at 1 μM: both
[21] = Incubations with minipig hepatic S9
[22] = Incubations with rhesus monkey hepatic S9
[23] = cynomolgus monkey; ref Hutzler JM, Cerny MA, Yang YS et al. (2014); cited from earlier work
[24] = mouse; ref Hutzler JM, Cerny MA, Yang YS et al. (2014); cited from earlier work
[25] = Incubations with mouse hepatic S9
[26] = Incubations with guinea pig hepatic S9
[27] = rat; ref Hutzler JM, Cerny MA, Yang YS et al. (2014); cited from earlier work
[28] = Incubations with rat hepatic S9

## Nc1nc(OCc2ccccc2)c2[nH]cnc2n1 [O^6-benzylguanine]
[1]; s9, pH 7.4, CLint +NADPH
  CLint scaled at 1 μM: 17.8 ± 3.05 mL/min/kg
[1]; s9, pH 7.4, CLint +NADPH +Hyd
  CLint scaled at 1 μM: 5.37 ± 1.16 mL/min/kg
[1]; s9, pH 7.4, CLint −NADPH
  CLint scaled at 1 μM: 14.8 ± 1.98 mL/min/kg
[2]
  CLint scaled at 1 μM: 4.68 ± 2.2 mL/min/kg
[3]; s9, pH 7.4, CLint +NADPH
  CLint scaled at 1 μM: 35.6 ± 5.1 mL/min/kg
[3]; s9, pH 7.4, CLint −NADPH
  CLint scaled at 1 μM: 33.5 ± 3.84 mL/min/kg
[4]
  CLint scaled at 1 μM: 6.59 ± 0.664 mL/min/kg
[5]; 1 μM
  CLHEP (hepatic clearance): 21.4 ± 2.28 mL/min/kg
  E (estimated hepatic extraction ratio): 0.49
[5]; s9, 1 μM
  Fm,AO Method A (fraction metabolized by AO): 1
  Fm,AO Method B (fraction metabolized by AO): 0.94
[6]
  CLHEP (hepatic clearance): 16.6 ± 4.51 mL/min/kg
  E (estimated hepatic extraction ratio): 0.18
[7]; 1 μM
  CLHEP (hepatic clearance): 15.0 ± 1.75 mL/min/kg
  E (estimated hepatic extraction ratio): 0.34
[7]; s9, 1 μM
  Fm,AO Method A (fraction metabolized by AO): 1
  Fm,AO Method B (fraction metabolized by AO): 1^#
[8]; s9, pH 7.4, CLint +NADPH
  CLint scaled at 1 μM: 58.7 ± 4.65 mL/min/kg
[8]; s9, pH 7.4, CLint +NADPH +Hyd
  CLint scaled at 1 μM: 15 ± 2.14 mL/min/kg
[8]; s9, pH 7.4, CLint −NADPH
  CLint scaled at 1 μM: 48.7 ± 5.15 mL/min/kg
[9]
  CLint scaled at 1 μM: 15.5 ± 2.48 mL/min/kg
[10]; 1 μM
  CLHEP (hepatic clearance): 9.62 ± 0.593 mL/min/kg
  E (estimated hepatic extraction ratio): 0.46
[10]; s9, 1 μM
  Fm,AO Method A (fraction metabolized by AO): 0.70
  Fm,AO Method B (fraction metabolized by AO): 0.83
[11]; 1 μM
  CLHEP (hepatic clearance): 30.3 ± 1.11 mL/min/kg
  E (estimated hepatic extraction ratio): 0.50
[11]; s9, 1 μM
  Fm,AO Method A (fraction metabolized by AO): 0.74
  Fm,AO Method B (fraction metabolized by AO): 0.83
[12]; SSS from minipig
  fold-error of human S9 CLint predicted by SSS: outside of 3-fold-error
[13]; s9, pH 7.4, CLint +NADPH
  CLint scaled at 1 μM: 19.5 ± 2.05 mL/min/kg
[13]; s9, pH 7.4, CLint −NADPH
  CLint scaled at 1 μM: 21.3 ± 1.52 mL/min/kg
[14]
  CLHEP (hepatic clearance): 3.79 ± 1.04 mL/min/kg
  E (estimated hepatic extraction ratio): 0.14
[15]; i.v., ref Dolan ME, Roy SK, Fasanmade AA, et al. (1998)
  Human Plasma Clearance: 14.5^# mL/min/kg
[16]
  CLHEP (hepatic clearance): 7.40 ± 1.61 mL/min/kg
  E (estimated hepatic extraction ratio): 0.11
[17]; all species except rat, mouse, and minipig
  Fm,AO, across species: ≥ 0.70
[17]; human, cynomolgus, and guinea pig hepatic S9
  E (estimated hepatic extraction ratio), across species: approximately 0.5
[17]; rat, mouse, minipig hepatic S9
  E (estimated hepatic extraction ratio), across species: approximately 0.1

## CN1CCC(Nc2ncc3ncnc(Nc4ccc(F)c(Cl)c4)c3n2)CC1 [BIBX1382]
[18]; cynomolgus monkey hepatic S9, method A (eq. 4)
  Fm,AO Method A (fraction metabolized by AO): 1
[18]; cynomolgus monkey hepatic S9, method B (eq. 5), values > 1 assumed equal to 1
  Fm,AO Method B (fraction metabolized by AO): 1^#
[18]; cynomolgus monkey hepatic S9, methods A and B taken together (data from Table 3)
  Fm,AO (fraction metabolized by AO): 1.0
[18]; cynomolgus monkey, E = CLHEP/QH from hepatic S9 (+NADPH)
  E (estimated hepatic extraction ratio): 0.80
[19]; single-species scaling from literature cynomolgus monkey CLp
  SSS Human Predicted CLp: 56 mL/min/kg and 56.0 mL/min/kg
[19]; single-species scaling from literature mouse CLp
  SSS Human Predicted CLp: 7.2 mL/min/kg
[19]; single-species scaling from literature rat CLp
  SSS Human Predicted CLp: 13.4 mL/min/kg
[20]; human, s9, pH 7.4, CLint (intrinsic clearance) in hepatic S9, human hepatic S9, in the presence of NADPH, Table 1, triplicate, 2–3 experiments
  CLint scaled at 1 μM: 80.2 ± 9.61 mL/min/kg
[20]; human, s9, pH 7.4, CLint +NADPH +Hyd, human hepatic S9 containing NADPH and hydralazine (50 μM)
  CLint scaled at 1 μM: 5.83 ± 1.22 mL/min/kg
[20]; human, s9, pH 7.4, CLint −NADPH +Hyd, human hepatic S9 containing hydralazine (50 μM) without NADPH
  CLint scaled at 1 μM: 3.93 ± 1.75 mL/min/kg
[20]; human, s9, pH 7.4, CLint −NADPH, human hepatic S9 without NADPH
  CLint scaled at 1 μM: 69.6 ± 2.1 mL/min/kg
[20]; human hepatic S9, method A (eq. 4)
  Fm,AO Method A (fraction metabolized by AO): 0.92
[20]; human hepatic S9, method B (eq. 5), values > 1 assumed equal to 1
  Fm,AO Method B (fraction metabolized by AO): 0.92
[20]; human hepatic S9, methods A and B taken together (data from Table 3)
  Fm,AO (fraction metabolized by AO): 0.92
[20]; human, E = CLHEP/QH from hepatic S9 (+NADPH)
  E (estimated hepatic extraction ratio): 0.79
[12]; SSS from guinea pig
  fold-error of human S9 CLint predicted by SSS: outside of 3-fold-error
[12]; single-species scaling from cynomolgus monkey S9 CLint
  SSS Human Predicted S9 CLint: 88.7 mL/min/kg
[12]; single-species scaling from mouse S9 CLint
  SSS Human Predicted S9 CLint: 4.3 mL/min/kg
[12]; single-species scaling from rat S9 CLint
  SSS Human Predicted S9 CLint: 7.5 mL/min/kg
[21]; male, Gottingen, minipig, s9, pH 7.4, CLint (intrinsic clearance) in hepatic S9, minipig hepatic S9, in the presence of NADPH, Table 1, triplicate, 2–3 experiments
  CLint scaled at 1 μM: 134 ± 5.69 mL/min/kg
[21]; minipig hepatic S9, method A (eq. 4)
  Fm,AO Method A (fraction metabolized by AO): 0.85
[21]; minipig hepatic S9, method B (eq. 5), values > 1 assumed equal to 1
  Fm,AO Method B (fraction metabolized by AO): 0.96
[21]; minipig, E = CLHEP/QH from hepatic S9 (+NADPH)
  E (estimated hepatic extraction ratio): 0.83
[22]; rhesus monkey hepatic S9, method A (eq. 4)
  Fm,AO Method A (fraction metabolized by AO): 0.94
[22]; rhesus monkey hepatic S9, method B (eq. 5), values > 1 assumed equal to 1
  Fm,AO Method B (fraction metabolized by AO): 0.86
[22]; rhesus monkey, E = CLHEP/QH from hepatic S9 (+NADPH)
  E (estimated hepatic extraction ratio): 0.72
[23]
  CLp (plasma clearance): 118^¶ mL/min/kg
[15]; human, ref Hutzler JM, Cerny MA, Yang YS et al. (2014)
  CLp (plasma clearance): 25–55^¶ mL/min/kg
[24]
  CLp (plasma clearance): 55^¶ mL/min/kg
[25]; male, CD-1, mouse, s9, pH 7.4, CLint (intrinsic clearance) in hepatic S9, mouse hepatic S9, in the presence of NADPH, Table 1, triplicate, 2–3 experiments
  CLint scaled at 1 μM: 33.2 ± 7.1 mL/min/kg
[25]; mouse, E = CLHEP/QH from hepatic S9 (+NADPH)
  E (estimated hepatic extraction ratio): 0.27
[26]; guinea pig hepatic S9, method A (eq. 4)
  Fm,AO Method A (fraction metabolized by AO): 0.65
[26]; guinea pig hepatic S9, method B (eq. 5), values > 1 assumed equal to 1
  Fm,AO Method B (fraction metabolized by AO): 0.73
[26]; guinea pig, E = CLHEP/QH from hepatic S9 (+NADPH)
  E (estimated hepatic extraction ratio): 0.54
[27]
  CLp (plasma clearance): 55^¶ mL/min/kg
[28]; male, Sprague-Dawley, rat, s9, pH 7.4, CLint (intrinsic clearance) in hepatic S9, rat hepatic S9, in the presence of NADPH, Table 1, triplicate, 2–3 experiments
  CLint scaled at 1 μM: 30.7 ± 3.56 mL/min/kg
[28]; rat hepatic S9, method A (eq. 4)
  Fm,AO Method A (fraction metabolized by AO): 0.09
[28]; rat hepatic S9, method B (eq. 5), values > 1 assumed equal to 1
  Fm,AO Method B (fraction metabolized by AO): 0.69
[28]; rat hepatic S9, methods A and B taken together (data from Table 3)
  Fm,AO (fraction metabolized by AO): ≤ 0.69
[28]; rat hepatic S9 containing NADPH and hydralazine (50 μM)
  CLint +NADPH +Hyd: 25.1 ± 6.29 mL/min/kg
[28]; rat hepatic S9 containing NADPH, Table 3 data set, triplicate
  CLint +NADPH: 27.6 ± 0.995 mL/min/kg
[28]; rat, E = CLHEP/QH from hepatic S9 (+NADPH)
  E (estimated hepatic extraction ratio): 0.30
[28]; rat, well-stirred model from S9 CLint (+NADPH), uncorrected for fraction unbound
  CLHEP (hepatic clearance): 21.3 ± 1.73 mL/min/kg
[17]; human, monkey, and minipig S9
  E (estimated hepatic extraction ratio), across species: 0.72 – 0.83
